In ChEMBL document CHEMBL1287684, “5-(pyridinon-1-yl)indazoles and 5-(furopyridinon-5-yl)indazoles as MCH-1 antagonists” (Bioorg Med Chem Lett, 2010):
≈ marks a conversion by molar mass, not a printed value.

Columns and labels:
Mus musculus [1] = test: Antiobesity activity in diet-induced obese C57BL/6J mouse model assessed as reduction of body weight at 30 mg/kg, po bid for 5 days; format: functional; set-up: scale not given: the % may be the effect or the level left
[2] = target: T1, Melanin-concentrating hormone receptor 1 (Homo sapiens, UniProt Q99705); test: Displacement of [3H]4-(benzyloxy)-1-(1-(2-(pyrrolidin-1-yl)ethyl)-1H-indazol-5-yl)pyridin-2(1H)-one from MCH-1 receptor expressed in CHO-K1 cells; format: cell-based
Cytochrome P450 3A4 = Cytochrome P450 3A4 (Homo sapiens, UniProt P08684); test: Inhibition of CYP3A4; format: ADME
[3] = Half life in human liver microsomes; format: ADME, Microsome
[4] = Half life in mouse liver microsomes; format: ADME, Microsome
[5] = target: Voltage-gated inwardly rectifying potassium channel KCNH2 (Homo sapiens, UniProt Q12809); test: Inhibition of human ERG expressed in HEK cells by mini-patch clamp assay
[6] = Aqueous solubility in PBS at pH 7.4; format: physicochemical
[7] = Drug level in mouse brain at 30 mg/kg after 6 hrs; format: ADME, organism-based; set-up: dose 30 mg/kg; conditions: read-out: Drug uptake
[8] = target: T1, Melanin-concentrating hormone receptor 1; test: Antagonistic activity at MCH-1 receptor expressed in CHO-K1 cell assessed as inhibition of MCH-induced calcium release; format: functional, cell-based
[9] = Plasma concentration in mouse at 30 mg/kg after 6 hrs; format: ADME, organism-based; set-up: dose 30 mg/kg
[10] = Ratio of drug level in brain to plasma in mouse at 30 mg/kg after 6 hrs; format: ADME, organism-based; set-up: dose 30 mg/kg; conditions: read-out: BPR
Cytochrome P450 1A2 = target: T2, Cytochrome P450 1A2 (Homo sapiens, UniProt P05177); test: Inhibition of CYP1A2; format: ADME
T2 sequence (P05177 whole entry): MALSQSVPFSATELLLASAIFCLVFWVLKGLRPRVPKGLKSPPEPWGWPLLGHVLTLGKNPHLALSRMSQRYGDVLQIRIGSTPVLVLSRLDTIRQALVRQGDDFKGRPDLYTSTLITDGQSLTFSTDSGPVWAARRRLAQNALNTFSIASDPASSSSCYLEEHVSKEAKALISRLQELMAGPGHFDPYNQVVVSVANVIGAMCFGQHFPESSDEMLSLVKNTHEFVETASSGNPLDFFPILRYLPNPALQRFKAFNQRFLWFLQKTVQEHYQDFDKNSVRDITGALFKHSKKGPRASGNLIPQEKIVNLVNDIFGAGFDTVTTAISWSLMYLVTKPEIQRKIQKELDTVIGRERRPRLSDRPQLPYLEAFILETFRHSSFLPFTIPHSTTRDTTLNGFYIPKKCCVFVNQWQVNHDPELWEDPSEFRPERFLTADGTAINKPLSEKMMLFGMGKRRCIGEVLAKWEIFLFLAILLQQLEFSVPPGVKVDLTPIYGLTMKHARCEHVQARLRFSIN

Cytochrome P450 2D6 = Cytochrome P450 2D6 (Homo sapiens, UniProt P10635); test: Inhibition of CYP2D6; format: ADME
Cytochrome P450 2C9 = Cytochrome P450 2C9 (Homo sapiens, UniProt P11712)
Cytochrome P450 2C19 = Cytochrome P450 2C19 (Homo sapiens, UniProt P33261); test: Inhibition of CYP2C19; format: ADME
Cytochrome P450 2B6 = target: T3, Cytochrome P450 2B6 (Homo sapiens, UniProt P20813); test: Inhibition of CYP2B6; format: ADME
T3 sequence (P20813 whole entry): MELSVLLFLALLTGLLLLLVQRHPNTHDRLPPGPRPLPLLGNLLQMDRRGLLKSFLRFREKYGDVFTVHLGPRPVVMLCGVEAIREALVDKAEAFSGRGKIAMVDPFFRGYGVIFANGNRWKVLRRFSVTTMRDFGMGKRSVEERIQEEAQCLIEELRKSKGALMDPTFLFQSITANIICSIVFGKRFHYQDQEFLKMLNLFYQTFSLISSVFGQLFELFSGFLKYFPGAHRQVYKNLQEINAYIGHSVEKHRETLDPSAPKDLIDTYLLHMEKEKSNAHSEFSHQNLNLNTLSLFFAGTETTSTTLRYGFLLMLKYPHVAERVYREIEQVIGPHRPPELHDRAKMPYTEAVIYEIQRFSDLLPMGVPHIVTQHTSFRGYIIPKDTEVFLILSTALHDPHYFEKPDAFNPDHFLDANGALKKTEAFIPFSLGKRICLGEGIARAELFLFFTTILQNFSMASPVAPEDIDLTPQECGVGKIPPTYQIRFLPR

Mus musculus [11] = test: Antiobesity activity in diet-induced obese C57BL/6J mouse model assessed as reduction of body weight at 30 mg/kg, po qd for 5 days; format: functional; set-up: scale not given: the % may be the effect or the level left
[12] = Ratio of drug level in brain to plasma in mouse at 10 mg/kg after 6 hrs; format: ADME, organism-based; set-up: dose 10 mg/kg; conditions: read-out: BPR
[13] = Plasma concentration in mouse at 10 mg/kg after 6 hrs; format: ADME, organism-based; set-up: dose 10 mg/kg
[14] = Drug level in mouse brain at 10 mg/kg after 6 hrs; format: ADME, organism-based; set-up: dose 10 mg/kg; conditions: read-out: Drug uptake

Chain of Voltage-gated inwardly rectifying potassium channel KCNH2 (Q12809 whole entry): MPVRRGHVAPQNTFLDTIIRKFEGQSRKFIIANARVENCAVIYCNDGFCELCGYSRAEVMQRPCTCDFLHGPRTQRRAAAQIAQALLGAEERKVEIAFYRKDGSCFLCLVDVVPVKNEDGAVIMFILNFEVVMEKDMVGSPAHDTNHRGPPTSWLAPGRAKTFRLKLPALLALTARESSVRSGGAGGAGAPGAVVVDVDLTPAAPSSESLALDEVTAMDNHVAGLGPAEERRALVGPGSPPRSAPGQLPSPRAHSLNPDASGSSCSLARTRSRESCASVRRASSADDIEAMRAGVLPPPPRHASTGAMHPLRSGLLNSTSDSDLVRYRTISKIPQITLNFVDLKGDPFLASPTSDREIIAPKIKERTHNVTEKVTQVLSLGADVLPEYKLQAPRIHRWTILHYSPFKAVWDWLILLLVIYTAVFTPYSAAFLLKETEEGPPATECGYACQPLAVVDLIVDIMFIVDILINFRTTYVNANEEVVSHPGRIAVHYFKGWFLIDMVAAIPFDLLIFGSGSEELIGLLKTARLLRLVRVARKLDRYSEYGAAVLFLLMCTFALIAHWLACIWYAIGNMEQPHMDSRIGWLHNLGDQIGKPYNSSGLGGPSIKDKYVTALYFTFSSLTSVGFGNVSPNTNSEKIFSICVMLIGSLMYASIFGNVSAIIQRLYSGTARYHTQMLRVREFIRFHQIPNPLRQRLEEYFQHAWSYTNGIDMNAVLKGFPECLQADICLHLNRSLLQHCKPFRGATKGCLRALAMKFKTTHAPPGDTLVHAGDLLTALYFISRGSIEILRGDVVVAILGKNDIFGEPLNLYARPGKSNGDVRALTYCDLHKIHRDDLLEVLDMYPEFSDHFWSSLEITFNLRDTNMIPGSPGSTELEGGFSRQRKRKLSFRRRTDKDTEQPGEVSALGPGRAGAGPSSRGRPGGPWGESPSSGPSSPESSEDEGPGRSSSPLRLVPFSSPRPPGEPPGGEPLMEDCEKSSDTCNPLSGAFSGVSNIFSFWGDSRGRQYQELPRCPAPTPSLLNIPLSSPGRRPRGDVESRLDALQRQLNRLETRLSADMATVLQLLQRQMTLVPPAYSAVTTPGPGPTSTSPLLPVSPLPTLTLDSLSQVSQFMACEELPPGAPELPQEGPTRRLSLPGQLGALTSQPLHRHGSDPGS
T1 sequence (Q99705 whole entry): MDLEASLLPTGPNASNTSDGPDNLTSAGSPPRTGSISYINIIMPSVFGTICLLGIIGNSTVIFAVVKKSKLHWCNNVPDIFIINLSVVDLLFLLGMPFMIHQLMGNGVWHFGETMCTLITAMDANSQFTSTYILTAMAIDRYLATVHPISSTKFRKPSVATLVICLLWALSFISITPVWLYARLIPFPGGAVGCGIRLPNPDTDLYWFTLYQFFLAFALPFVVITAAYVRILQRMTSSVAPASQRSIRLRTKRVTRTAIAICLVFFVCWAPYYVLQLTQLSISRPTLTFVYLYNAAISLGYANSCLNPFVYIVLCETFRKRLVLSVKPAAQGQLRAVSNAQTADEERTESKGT
Chain of Cytochrome P450 3A4 (P08684 whole entry): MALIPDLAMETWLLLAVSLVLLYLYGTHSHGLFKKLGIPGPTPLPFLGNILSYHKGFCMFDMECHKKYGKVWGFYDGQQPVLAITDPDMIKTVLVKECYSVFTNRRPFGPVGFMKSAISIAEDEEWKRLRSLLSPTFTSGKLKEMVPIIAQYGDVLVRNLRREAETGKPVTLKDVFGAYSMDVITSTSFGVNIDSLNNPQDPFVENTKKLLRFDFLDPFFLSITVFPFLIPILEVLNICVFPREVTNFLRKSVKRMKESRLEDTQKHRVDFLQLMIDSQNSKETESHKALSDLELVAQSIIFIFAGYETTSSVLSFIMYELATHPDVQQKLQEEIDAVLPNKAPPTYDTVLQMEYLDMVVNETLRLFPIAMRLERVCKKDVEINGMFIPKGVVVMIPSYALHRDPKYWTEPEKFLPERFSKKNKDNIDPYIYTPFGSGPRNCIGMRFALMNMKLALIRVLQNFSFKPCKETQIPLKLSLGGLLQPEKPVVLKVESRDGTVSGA
Chain of Cytochrome P450 2D6 (P10635 whole entry): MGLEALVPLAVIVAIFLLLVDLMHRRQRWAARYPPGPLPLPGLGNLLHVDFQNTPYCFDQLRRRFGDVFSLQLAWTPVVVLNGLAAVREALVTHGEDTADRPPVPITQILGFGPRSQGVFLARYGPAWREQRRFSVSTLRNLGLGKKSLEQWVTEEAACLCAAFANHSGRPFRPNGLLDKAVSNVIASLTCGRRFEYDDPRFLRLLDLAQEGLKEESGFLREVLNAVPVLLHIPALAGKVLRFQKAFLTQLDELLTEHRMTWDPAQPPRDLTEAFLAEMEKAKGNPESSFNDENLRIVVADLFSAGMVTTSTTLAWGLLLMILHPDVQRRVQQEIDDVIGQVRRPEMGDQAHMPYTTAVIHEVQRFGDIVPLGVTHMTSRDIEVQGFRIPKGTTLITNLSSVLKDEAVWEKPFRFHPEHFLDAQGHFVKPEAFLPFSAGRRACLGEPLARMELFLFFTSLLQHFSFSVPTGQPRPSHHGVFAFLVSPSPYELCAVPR
Chain of Cytochrome P450 2C19 (P33261 whole entry): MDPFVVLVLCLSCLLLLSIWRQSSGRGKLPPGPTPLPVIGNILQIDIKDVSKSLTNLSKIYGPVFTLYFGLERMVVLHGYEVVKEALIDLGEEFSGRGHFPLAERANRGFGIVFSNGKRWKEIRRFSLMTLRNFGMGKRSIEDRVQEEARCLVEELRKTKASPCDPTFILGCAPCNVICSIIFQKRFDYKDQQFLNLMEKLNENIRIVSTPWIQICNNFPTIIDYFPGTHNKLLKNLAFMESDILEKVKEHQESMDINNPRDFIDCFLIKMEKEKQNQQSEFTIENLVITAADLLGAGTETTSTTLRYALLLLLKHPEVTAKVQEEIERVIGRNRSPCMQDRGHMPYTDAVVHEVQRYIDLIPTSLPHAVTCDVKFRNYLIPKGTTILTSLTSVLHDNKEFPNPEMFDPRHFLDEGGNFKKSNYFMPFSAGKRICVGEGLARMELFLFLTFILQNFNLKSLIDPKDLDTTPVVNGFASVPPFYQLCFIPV
Chain of Cytochrome P450 2C9 (P11712 whole entry): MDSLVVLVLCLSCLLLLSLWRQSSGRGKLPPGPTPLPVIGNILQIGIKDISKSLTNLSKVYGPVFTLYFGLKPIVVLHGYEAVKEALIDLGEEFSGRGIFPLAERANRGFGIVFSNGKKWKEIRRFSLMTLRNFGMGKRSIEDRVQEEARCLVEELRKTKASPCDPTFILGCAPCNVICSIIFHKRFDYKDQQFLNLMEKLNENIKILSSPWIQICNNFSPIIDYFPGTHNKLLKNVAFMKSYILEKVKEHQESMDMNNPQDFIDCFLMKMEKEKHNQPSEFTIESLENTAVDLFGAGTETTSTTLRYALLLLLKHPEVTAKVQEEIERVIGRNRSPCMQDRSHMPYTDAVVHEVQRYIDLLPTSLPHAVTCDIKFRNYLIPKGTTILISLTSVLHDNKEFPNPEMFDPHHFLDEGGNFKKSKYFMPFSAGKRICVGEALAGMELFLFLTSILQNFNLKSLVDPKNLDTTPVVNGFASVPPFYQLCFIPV

Structure (SMILES) | Ki [2] [nM] | IC50 [5] [µM] | other results
O=c1cc(OCc2ccccc2)ccn1-c1ccc2c(cnn2CC2=NCCN2)c1 | 22.6 | 8.5 | Activity (Mus musculus [1]): 3.5%; IC50 (Cytochrome P450 3A4): 38 µM; half-life [3]: 260 min; half-life [4]: 580 min; solubility [6]: 410 µM (≈ 164 µg/mL)
COC[C@H]1CCCN1CCn1ncc2cc(-n3ccc(OCc4ccccc4)cc3=O)ccc21 | 11.2 | 0.8 | –
O=c1cc(OCc2ccccc2)ccn1-c1ccc2c(cnn2CCN2CCC[C@@H]2CO)c1 | 3.1 | 2.3 | –
CCCCn1ncc2cc(-n3ccc(OCc4ccccc4)cc3=O)ccc21 | > 5000 | – | –
CN(C)CCn1ncc2cc(-n3ccc(OCc4ccccc4)cc3=O)ccc21 | 4.7 | 1.8 | –
O=c1cc(OCc2ccccc2)ccn1-c1ccc2c(cnn2CCN2CCCC2)c1 | – | – | concentration at 6 h [7]: 1480 ng/g; IC50 [8]: 14 nM; concentration at 6 h [9]: 2220 ng/mL; Kp at 6 h [10]: 0.7; IC50 (Cytochrome P450 1A2): > 10 µM; IC50 (Cytochrome P450 3A4): 10 µM; half-life [3]: 303 min; half-life [4]: 695 min; solubility [6]: 492 µM (≈ 204 µg/mL)
CN(C)CCCn1ncc2cc(-n3ccc(OCc4ccccc4)cc3=O)ccc21 | 12.6 | 1.4 | –
CN(C)CC(O)Cn1ncc2cc(-n3ccc(OCc4ccccc4)cc3=O)ccc21 (stereo not given) | 37.7 | 12.1 | –
O=c1cc(OCc2ccccc2)ccn1-c1ccc2c(cnn2CCN2CC[C@H](O)C2)c1 | 4.7 | 9 | Activity (Mus musculus [1]): 3.3%; IC50 (Cytochrome P450 2D6): > 10 µM; IC50 (Cytochrome P450 2C9): > 10 µM; IC50 (Cytochrome P450 2C19): > 10 µM; IC50 (Cytochrome P450 2B6): > 10 µM; IC50 (Cytochrome P450 1A2): > 10 µM; IC50 (Cytochrome P450 3A4): 7.7 µM; half-life [3]: 289 min; half-life [4]: 433 min; solubility [6]: > 500 µM
CO[C@H]1CCN(CCn2ncc3cc(-n4ccc(OCc5ccccc5)cc4=O)ccc32)C1 | 9.4 | – | –
O=c1cc(OCc2ccccc2)ccn1-c1ccc2c(cnn2C[C@@H]2CCCN2)c1 | 12 | 2 | –
O=c1cc(OCc2ccccc2)ccn1-c1ccc2c(cnn2CC2C[C@@H](O)CN2)c1 (stereo not given in full) | 33 | > 30 | –
CN1CCN=C1Cn1ncc2cc(-n3ccc(OCc4ccccc4)cc3=O)ccc21 | 30.4 | – | –
O=c1cc(OCc2ccccc2)ccn1-c1ccc2c(cnn2CCN2CCOCC2)c1 | 43.4 | > 30 | –
O=c1cc(OCc2ccccc2)ccn1-c1ccc2c(cnn2CCN2CC3CC2CO3)c1 (stereo not given) | 17.3 | 16 | –
O=c1cc(OCc2ccccc2)ccn1-c1ccc2c(cnn2CCN2CCNCC2)c1 | 24.3 | – | –
O=c1c2cc(-c3ccccc3)oc2ccn1-c1ccc2c(cnn2CCN2CCCC2)c1 | 9.7 | – | –
O=c1c2cc(-c3ccc(F)cc3)oc2ccn1-c1ccc2c(cnn2CCN2CCCC2)c1 | 6.1 | – | –
O=c1c2cc(-c3ccc(Cl)cc3)oc2ccn1-c1ccc2c(cnn2CCN2CCCC2)c1 | 5.2 | – | Activity (Mus musculus [11]): 4.5%; IC50 [8]: 23 nM; Kp at 6 h [12]: 16; concentration at 6 h [13]: 141 ng/mL; concentration at 6 h [14]: 2250 ng/g
O=c1c2cc(-c3ccccc3Cl)oc2ccn1-c1ccc2c(cnn2CCN2CCCC2)c1 | 28 | – | –
O=c1c2cc(-c3cccc(Cl)c3)oc2ccn1-c1ccc2c(cnn2CCN2CCCC2)c1 | 38 | – | –
O=c1c2cc(-c3ccc(Cl)cc3Cl)oc2ccn1-c1ccc2c(cnn2CCN2CCCC2)c1 | 14 | – | –
O=c1c2cc(-c3ccc(Cl)cc3F)oc2ccn1-c1ccc2c(cnn2CCN2CCCC2)c1 | 4.2 | – | –
COc1cc(Cl)ccc1-c1cc2c(=O)n(-c3ccc4c(cnn4CCN4CCCC4)c3)ccc2o1 | 48 | – | –
O=c1c2cc(-c3ccccn3)oc2ccn1-c1ccc2c(cnn2CCN2CCCC2)c1 | 59 | – | –
O=c1c2cc(-c3ncccn3)oc2ccn1-c1ccc2c(cnn2CCN2CCCC2)c1 | 1680 | – | –
